Measurements: patent US20040180855A1, “Methods of treating thrombosis with reduced risk of increased bleeding times” (priority 2003, published 2004)

Experiments:
[1] = target: T1, Recombinant tissue plasminogen activator (Homo sapiens, UniProt P00750); experiment: Selectivity assay tissue plasminogen activator; format: biochemical; details: Table 3
T1 construct: purchased Genentech

[2] = test system: mesenteric artery bleeding time; experiment: Mesenteric artery bleeding time (MABT) model; format: in vivo; details: rat, i.v. 12+12 and 24+24 mg/kg+mg/kg/hr, pre- vs post-treatment, FIG. 6
Description: Experimental Bleeding Time Two models of bleeding time were performed, namely, a renal cortex bleeding model (using template incision of the renal cortex), and a mesenteric artery bleeding model (using severance of small mesenteric arteries).
In the mesenteric artery bleeding time (MABT) model, the abdomen was opened via a midline incision and the small intestine was exteriorized. The jejunum was exposed, held in place with clamps and superfused with Ringer's solution maintained at 37° C. Small arteries that branch perpendicular to the mesenteric artery and course over the surface of the jejunum were observed through an SZH10 stereomicroscope (Olympus Corp., Lake Success, N.Y.). These vessels were punctured with a 30-gauge hypodermic needle and the time in sec from puncturing until bleeding stopped was recorded. Bleeding times were determined in 3-5 arteries before administration of test article and in 3-5 arteries 20 min after the start of test article infusion. […]
Statistical Analysis In the venous and arterial thrombosis procedures, treatment effects on thrombus weight, baseline blood flow, and average blood flow during thrombosis were determined by analysis of variance with Dunnett's test for comparison to the vehicle group. […] Treatment effects on bleeding times were determined by analysis of variance with Dunnett's test for comparison to the vehicle group. […]

[3] = test system: stasis-VT (vena cava thrombosis); experiment: Venous thrombosis, stasis VT model; format: in vivo; details: rat stasis VT
Description: General Surgical Preparation Male Sprague Dawley rats (310 to 390 g) were anesthetized with Na-pentobarbital (50 mg/kg i.p.). The left jugular vein was cannulated with PE-50 tubing for drug administration, and the trachea was intubated with PE-205 tubing to ensure airway patency. […] Statistical Analysis In the venous and arterial thrombosis procedures, treatment effects on thrombus weight, baseline blood flow, and average blood flow during thrombosis were determined by analysis of variance with Dunnett's test for comparison to the vehicle group. […] Treatment effects on bleeding times were determined by analysis of variance with Dunnett's test for comparison to the vehicle group. Both post-treatment and pre-treatment bleeding times and the relative bleeding time increases in sec were analyzed. […]

T1 sequence (P00750 36-562): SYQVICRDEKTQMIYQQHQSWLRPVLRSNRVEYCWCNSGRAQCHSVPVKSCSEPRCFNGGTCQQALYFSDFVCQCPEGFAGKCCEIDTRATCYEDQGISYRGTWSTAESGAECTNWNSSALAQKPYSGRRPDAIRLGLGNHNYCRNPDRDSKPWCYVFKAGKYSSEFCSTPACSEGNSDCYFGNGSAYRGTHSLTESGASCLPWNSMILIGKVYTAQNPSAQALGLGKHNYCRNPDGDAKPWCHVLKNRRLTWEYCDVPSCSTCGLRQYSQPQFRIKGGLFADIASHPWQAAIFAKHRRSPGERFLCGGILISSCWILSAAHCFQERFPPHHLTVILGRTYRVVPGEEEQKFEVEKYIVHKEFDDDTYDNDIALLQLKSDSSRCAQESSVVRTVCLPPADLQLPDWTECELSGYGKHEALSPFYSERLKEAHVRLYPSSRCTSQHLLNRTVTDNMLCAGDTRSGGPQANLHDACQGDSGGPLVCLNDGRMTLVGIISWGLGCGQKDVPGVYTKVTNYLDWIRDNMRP

- IC50 [1]: > 33 µM
- effect on mesenteric artery bleeding times [2]: no effect
SMILES: CC(C)(C)NC(=O)N1CCN(C(=O)N2C(=O)[C@H](CCCNC(=N)N)[C@H]2C(=O)O)CC1 [Example 4]
- effect on thrombus weight ([3]; i.v. 2+2 mg/kg+mg/kg/hr): little effect
- reduction in thrombus weight ([3]; i.v. 6+6 mg/kg+mg/kg/hr, FIG. 4): 64%
